According to patent publication US20240391862A1, “(1,4,5-TRISUBSTITUTED-1H-PYRAZOL-3-YL)OXY-2-ALKOXY ALKYL ACIDS AND THEIR DERIVATIVES, THEIR SALTS AND THEIR USE AS HERBICIDAL AGENTS” (Bayer AKtiengesellschaft, priority 2021, published 2024):

Experiments:
ORYSA = experiment: Post-emergence herbicidal effect and crop plant compatibility, greenhouse pot test; format: in vivo, Oryza sativa; settings: 80 g/ha, visual rating about 3 weeks after treatment, crop plant
Procedure, shortened: (§1)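 Greenhouse pot plants in sandy loam receive a one-leaf-stage spray at 20 to 320 g/ha. Activity is assessed visually around 3 weeks afterwards on a 0–100% scale, where 100% means the plants have died.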

TRZAS [1] = experiment: Pre-emergence herbicidal effect and crop plant compatibility, greenhouse pot test; format: in vivo, Triticum aestivum; settings: scored visually after about 3 weeks vs untreated controls
Source text: (§2) Seeds of monocotyledonous and dicotyledonous weed plants and crop plants are placed in plastic or organic planting pots and covered with soil. The compounds of the invention, formulated in the form of wettable powders (WP) or as emulsion concentrates (EC), are then applied to the surface of the covering soil as aqueous suspension or emulsion with addition of 0.5% additive at a water application rate equivalent to 600 l/ha. After the treatment, the pots are placed in a greenhouse and kept under good growth conditions for the trial plants. After about 3 weeks, the effect of the preparations is scored visually in comparison with untreated controls as percentages. For example, 100% activity=the plants have died, 0% activity=like control plants.
(§3) Tables 1a to 19c below show the effects/crop compatibilities of selected compounds of the general formula (I) on various harmful plants at an application rate corresponding to 20 to 320 g/ha, which were obtained by the trial procedure specified above.
(§4) • ALOMY: Alopecurus myosuroides SETVI: Setaria viridis • AVEFA: Avena fatua POLCO: Fallopia convolvulus • AMARE: Amaranthus retroflexus ECHCG: Echinochloa crus-galli • LOLRJ: Lolium rigidum STEME: Stellaria media • VERPE: Veronica persica MATIN: Tripleurospermum inodorum • DIGSA: Digitaria sanguinalis ABUTH: Abutylon threophrasti • TRZAS: Triticum aestivum VIOTR: Viola tricolor • BRSNW: Brassica napus ZEAMX: Zea mays • PHBPU: Ipomoea purpurea GLXMA: Glycine max • ORYSA: Oryza sativa HORMU: Hordeum murinum

ZEAMX [2] = experiment: as above; format: in vivo, Zea mays; settings: scored visually after about 3 weeks vs untreated controls
Source text: as §2, §3, §4

TRZAS [3] = experiment: Post-emergence herbicidal effect and crop plant compatibility, greenhouse pot test; format: in vivo, Triticum aestivum; settings: for Post-emergence effect against TRZAS: visual rating about 3 weeks after treatment, crop plant; for Post-emergence effect at 20 g/ha against TRZAS in %: one-leaf stage, rated visually after about 3 weeks vs untreated controls
Procedure, shortened: as §1

GLXMA [4] = experiment: as above; format: in vivo, Glycine max; settings: visual rating about 3 weeks after treatment, crop plant
Source text: as §4
Seeds of monocotyledonous and dicotyledonous weeds and crop plants are placed in sandy loam in plastic or organic planting pots, covered with soil and cultivated in a greenhouse under controlled growth conditions. 2 to 3 weeks after sowing, the trial plants are treated at the one-leaf stage. The compounds of the invention, formulated in the form of wettable powders (WP) or as emulsion concentrates (EC), are then sprayed onto the green parts of the plants as aqueous suspension or emulsion with addition of 0.5% additive at a water application rate of 600 l/ha (converted). After the test plants have been kept in the greenhouse under optimum growth conditions for about 3 weeks, the activity of the preparations is rated visually in comparison to untreated controls. For example, 100% activity=the plants have died, 0% activity=like control plants.
Tables 20a to 38c below show the effects/crop compatibilities of selected compounds of the general formula (I) on various harmful plants at an application rate corresponding to 20 to 320 g/ha, which were obtained by the trial procedure specified above.

ZEAMX [5] = experiment: as above; format: in vivo, Zea mays; settings: one-leaf stage, rated visually after about 3 weeks vs untreated controls
Procedure, shortened: as §1

BRSNW = experiment: Pre-emergence herbicidal effect and crop plant compatibility, greenhouse pot test; format: in vivo, Brassica napus; settings: scored visually after about 3 weeks vs untreated controls
Source text: as §2, §3, §4

GLXMA [6] = experiment: as above; format: in vivo, Glycine max; settings: scored visually after about 3 weeks vs untreated controls
Source text: as §2, §3, §4

POLCO = experiment: Post-emergence herbicidal effect, greenhouse pot test; format: in vivo, Fallopia convolvulus; settings: 320 g/ha
Procedure, shortened: (§5)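 Sandy loam pots, greenhouse. One-leaf stage (2–3 wk after sowing) foliar spray; WP/EC in water + 0.5% additive, 600 l/ha; 20–320 g/ha. Visual score ~3 wk, 0–100% vs untreated.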

AVEFA = experiment: as above; format: in vivo, Avena fatua; settings: 320 g/ha, visual rating about 3 weeks after treatment
Procedure, shortened: as §5

VERPE = experiment: as above; format: in vivo, Veronica persica; settings: 320 g/ha
Procedure, shortened: as §5

PHBPU = experiment: as above; format: in vivo, Ipomoea purpurea; settings: 320 g/ha
Procedure, shortened: as §5

ABUTH = experiment: as above; format: in vivo, Abutilon theophrasti; settings: visual rating about 3 weeks after treatment
Procedure, shortened: as §5

AMARE = experiment: as above; format: in vivo, Amaranthus retroflexus; settings: 320 g/ha, visual rating about 3 weeks after treatment
Procedure, shortened: as §5

SMILES	Post-emergence effect against ORYSA (ORYSA) [%]	Pre-emergence effect at 80 g/ha against TRZAS in % (TRZAS [1]) [%]	Pre-emergence effect at 320 g/ha against TRZAS in % (TRZAS [1]) [%]	Post-emergence effect against TRZAS (TRZAS [3]; 80 g/ha) [%]	Post-emergence effect against TRZAS (TRZAS [3]; 320 g/ha) [%]	Post-emergence effect against GLXMA (GLXMA [4]; 80 g/ha) [%]	Post-emergence effect at 80 g/ha against ZEAMX in % (ZEAMX [5]) [%]	Post-emergence effect at 320 g/ha against ZEAMX in % (ZEAMX [5]) [%]	Pre-emergence effect at 80 g/ha against GLXMA in % (GLXMA [6]) [%]	Pre-emergence effect at 320 g/ha against GLXMA in % (GLXMA [6]) [%]	Post-emergence effect at 20 g/ha against TRZAS in % (TRZAS [3]) [%]	Post-emergence effect against GLXMA (GLXMA [4]; 20 g/ha) [%]	Post-emergence effect against PHBPU in % (PHBPU) [%]	Post-emergence effect at 20 g/ha against ZEAMX in % (ZEAMX [5]) [%]	other results
CCOC(=O)C(OCC)Oc1nn(-c2ccc(Cl)cc2F)c(-c2ccc(F)cc2F)c1Br (stereo not shown) [Example I-09]	10	0	20	0	0	10	0	0	10	10					Pre-emergence effect at 320 g/ha against ZEAMX in % (ZEAMX [2]; 320 g/ha): 10%; Post-emergence effect against GLXMA (GLXMA [4]; 320 g/ha): 20%; Pre-emergence effect at 80 g/ha against BRSNW in % (BRSNW; 80 g/ha): 0%; Pre-emergence effect at 320 g/ha against BRSNW in % (BRSNW; 320 g/ha): 0%
COC(=O)C(OC)Oc1nn(-c2ccc(Cl)cc2F)c(-c2ccc(F)cc2F)c1Br (stereo not shown) [Example I-11]	0	0	0	0	0	20	0	0	0	0					Pre-emergence effect at 80 g/ha against ZEAMX in % (ZEAMX [2]; 80 g/ha): 0%
COC(=O)C(OC)Oc1nn(-c2ccccc2F)c(-c2ccc(F)nc2)c1C(F)(F)C(F)(F)F (stereo not shown) [Example I-60]				0			0				0	10	90	0	Post-emergence effect against POLCO in % (POLCO): 90%; Post-emergence effect against AVEFA (AVEFA): 80%; Post-emergence effect against VERPE in % (VERPE): 80%
COC(=O)C(OC)Oc1nn(-c2cccc(C)c2F)c(-c2ccc(F)nc2)c1C1CC1 (stereo not shown) [Example I-93]				10	20						0	20	80	10	Post-emergence effect against ABUTH (ABUTH; 80 g/ha): 80%; Post-emergence effect against ABUTH (ABUTH; 320 g/ha): 90%; Post-emergence effect against AMARE (AMARE): 90%
